Key:
MMP-3 (Stromelysin-1) = MMP-3 (Stromelysin-1) (Homo sapiens, UniProt P08254); assay: In vitro metalloprotease inhibition, MMP-3; assay type: biochemical
From the text: (§1) Blank cells indicate lack of data only.

MMP-13 (collagenase-3) = MMP-13 (collagenase-3) (Homo sapiens, UniProt P45452); assay: In vitro metalloprotease inhibition, MMP-13; assay type: biochemical
ADAM-10 = biological target: T1, ADAM-10 (UniProt O14672); assay: ADAM-10 enzyme assay, cleavage of a fluorogenic 10-residue peptide; assay type: biochemical, mouse or human (mADAM-10 or hADAM-10); conditions: in vitro;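 also: mouse or human ADAM-10 at 5 nM active enzyme, pH 8.0 HEPES buffer with CaCl2 and NP-40, compounds titrated 100 µM down to 0.5 nM, fluorescence read after 16 h at room temperature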
T1 sequence (O14672 1-748): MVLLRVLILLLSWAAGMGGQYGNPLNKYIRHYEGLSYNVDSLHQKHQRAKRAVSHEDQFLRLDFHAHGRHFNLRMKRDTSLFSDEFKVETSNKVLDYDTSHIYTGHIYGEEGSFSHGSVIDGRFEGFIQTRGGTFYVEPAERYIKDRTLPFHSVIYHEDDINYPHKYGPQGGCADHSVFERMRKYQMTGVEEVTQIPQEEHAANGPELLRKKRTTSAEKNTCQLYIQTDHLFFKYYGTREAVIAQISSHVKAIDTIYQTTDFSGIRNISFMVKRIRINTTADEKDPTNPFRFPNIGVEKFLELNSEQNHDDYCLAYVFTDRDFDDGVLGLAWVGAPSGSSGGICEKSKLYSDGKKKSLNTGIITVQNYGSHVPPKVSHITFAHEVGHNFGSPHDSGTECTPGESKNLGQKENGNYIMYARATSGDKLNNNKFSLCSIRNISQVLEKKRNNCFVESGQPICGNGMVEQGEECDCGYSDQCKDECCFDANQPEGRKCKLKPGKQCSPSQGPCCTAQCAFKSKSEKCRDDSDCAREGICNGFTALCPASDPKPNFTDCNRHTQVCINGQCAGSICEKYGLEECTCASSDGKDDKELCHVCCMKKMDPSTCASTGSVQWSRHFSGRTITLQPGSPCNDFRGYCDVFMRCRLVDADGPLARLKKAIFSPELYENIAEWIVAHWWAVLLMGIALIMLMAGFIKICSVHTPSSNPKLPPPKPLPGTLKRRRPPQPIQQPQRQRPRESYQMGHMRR
Procedure: mADAM-10 or hADAM-10 activity was measured as the ability to cleave a 10-residue peptide (DABCYL-Leu-Leu-Ala-Gln-Lys-*-LeuArg-Ser-Ser-Arg-EDANS). […] Enzyme was diluted to a final active concentration of 5 nM in Buffer A (50 mM HEPES 8.0, 100 mM NaCl, 1 mM CaCl2 and 0.01% NP-40). Serial dilutions for compounds were performed ranging from 100 μM to 0.5 nM using a Beckman Biomek 2000 in polypropylene plates (Greiner). […] This reaction was incubated for 16 hr at RT and fluorescence was read using identical conditions.

[1] = biological target: T2, MMP-2 (72 kDa gelatinase, gelatinase A) (Homo sapiens, UniProt P08253); assay: In vitro metalloprotease inhibition, MMP-2; assay type: biochemical
T2 sequence (P08253 110-660): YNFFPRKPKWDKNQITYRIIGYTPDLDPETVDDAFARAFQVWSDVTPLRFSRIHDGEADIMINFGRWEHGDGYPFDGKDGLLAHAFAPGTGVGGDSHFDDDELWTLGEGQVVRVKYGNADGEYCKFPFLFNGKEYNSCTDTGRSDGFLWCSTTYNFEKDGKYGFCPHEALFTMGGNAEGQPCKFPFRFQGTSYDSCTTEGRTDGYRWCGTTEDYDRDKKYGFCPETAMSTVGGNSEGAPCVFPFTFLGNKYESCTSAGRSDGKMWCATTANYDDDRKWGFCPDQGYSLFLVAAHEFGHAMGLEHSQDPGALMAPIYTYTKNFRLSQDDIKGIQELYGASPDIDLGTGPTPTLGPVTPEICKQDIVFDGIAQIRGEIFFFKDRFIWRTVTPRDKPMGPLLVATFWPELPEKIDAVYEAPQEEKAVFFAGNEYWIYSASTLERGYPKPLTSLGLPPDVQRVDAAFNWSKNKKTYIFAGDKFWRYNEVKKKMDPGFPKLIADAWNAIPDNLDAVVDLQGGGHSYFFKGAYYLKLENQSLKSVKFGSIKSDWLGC

[2] = biological target: T3, MMP-1 (Fibroblast collagenase) (Homo sapiens, UniProt P03956); assay: In vitro metalloprotease inhibition, MMP-1; assay type: biochemical
T3 sequence (P03956 100-469): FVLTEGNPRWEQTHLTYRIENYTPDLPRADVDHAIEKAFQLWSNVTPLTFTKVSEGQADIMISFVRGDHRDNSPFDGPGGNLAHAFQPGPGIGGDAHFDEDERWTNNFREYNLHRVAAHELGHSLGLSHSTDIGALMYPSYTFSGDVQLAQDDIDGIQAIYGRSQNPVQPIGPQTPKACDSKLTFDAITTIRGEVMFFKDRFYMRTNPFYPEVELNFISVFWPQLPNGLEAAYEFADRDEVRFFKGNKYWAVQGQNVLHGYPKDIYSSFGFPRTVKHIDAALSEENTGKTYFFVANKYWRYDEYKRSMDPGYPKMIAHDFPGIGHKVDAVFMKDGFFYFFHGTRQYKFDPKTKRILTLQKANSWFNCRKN
From the text: as §1

Chain of MMP-3 (Stromelysin-1) (P08254 100-477, species assumed): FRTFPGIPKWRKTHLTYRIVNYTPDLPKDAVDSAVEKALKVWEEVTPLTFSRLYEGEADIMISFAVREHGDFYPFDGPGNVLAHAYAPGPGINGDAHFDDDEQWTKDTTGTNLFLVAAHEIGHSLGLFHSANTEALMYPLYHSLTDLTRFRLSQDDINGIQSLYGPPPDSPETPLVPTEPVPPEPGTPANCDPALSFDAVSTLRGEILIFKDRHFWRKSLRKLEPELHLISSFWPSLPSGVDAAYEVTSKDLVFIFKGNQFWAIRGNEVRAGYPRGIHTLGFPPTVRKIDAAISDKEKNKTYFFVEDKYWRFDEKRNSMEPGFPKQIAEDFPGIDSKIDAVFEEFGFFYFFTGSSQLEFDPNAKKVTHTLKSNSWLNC

| SMILES | IC50 (MMP-3 (Stromelysin-1)) | IC50 (MMP-13 (collagenase-3)) | IC50 (ADAM-10) | IC50 [1] | IC50 [2] |
| --- | --- | --- | --- | --- | --- |
| O=C(NO)[C@H]1CN(C(=O)CN2CCOCC2)CCN1S(=O)(=O)c1cc(F)c(Oc2ccc(Cl)cc2)c(F)c1 [Entry 25] | 0.05 to 1 µM | < 0.05 µM | < 0.05 µM | < 0.05 µM | > 20 µM |
| O=C(NO)[C@H]1CN(C(=O)OCCN2CCCC2)CCN1S(=O)(=O)c1cc(F)c(Oc2ccc(Cl)cc2)c(F)c1 [Entry 18] | 0.05 to 1 µM | < 0.05 µM | < 0.05 µM | < 0.05 µM | > 20 µM |
| O=C(NO)[C@H]1CN(C(=O)OCc2ccccc2)CCN1S(=O)(=O)c1cc(F)c(Oc2ccc(Cl)cc2)c(F)c1 [Entry 32] | 0.05 to 1 µM | < 0.05 µM | < 0.05 µM | < 0.05 µM | 1 to 20 µM |
| COCCOC(=O)N1CCN(S(=O)(=O)c2cc(F)c(Oc3ccc(F)cc3)c(F)c2)[C@@H](C(=O)NO)C1 [Entry 10] | 1 to 20 µM | < 0.05 µM | < 0.05 µM | < 0.05 µM | 1 to 20 µM |
| O=C(NO)[C@H]1CN(C(=O)NCCN2CCCC2)CCN1S(=O)(=O)c1cc(F)c(Oc2ccc(Cl)cc2)c(F)c1 [Entry 17] | 0.05 to 1 µM | < 0.05 µM | < 0.05 µM | < 0.05 µM | 1 to 20 µM |
| COCCOC(=O)N1CCN(S(=O)(=O)c2ccc(Oc3ccc4c(c3)CCCC4)nc2)[C@@H](C(=O)NO)C1 [Entry 64] | < 0.05 µM | < 0.05 µM | < 0.05 µM | < 0.05 µM | 0.05 to 1 µM |
| CCOC(=O)N1CCN(S(=O)(=O)c2cc(F)c(Oc3ccc(F)cc3)c(F)c2)[C@@H](C(=O)NO)C1 [Entry 13] | 0.05 to 1 µM | < 0.05 µM | < 0.05 µM | < 0.05 µM | 1 to 20 µM |
| COCCOC(=O)N1CCN(S(=O)(=O)c2ccc(-c3cccc(F)c3)nc2)[C@@H](C(=O)NO)C1 [Entry 66] | < 0.05 µM | < 0.05 µM | < 0.05 µM | < 0.05 µM | 0.05 to 1 µM |
| O=C(NO)[C@H]1CN(S(=O)(=O)c2cc(F)c(O)c(F)c2)CCN1S(=O)(=O)c1cc(F)c(Oc2ccc(Cl)cc2)c(F)c1 [Entry 41] | < 0.05 µM | < 0.05 µM | < 0.05 µM | < 0.05 µM | 1 to 20 µM |
| O=C(NO)[C@H]1CN(C(=O)Cc2cccnc2)CCN1S(=O)(=O)c1cc(F)c(Oc2ccc(Cl)cc2)c(F)c1 [Entry 47] | 0.05 to 1 µM | < 0.05 µM | < 0.05 µM | < 0.05 µM | > 20 µM |
| CS(=O)(=O)N1CCN(S(=O)(=O)c2cc(F)c(Oc3ccc(Cl)cc3)c(F)c2)[C@@H](C(=O)NO)C1 [Entry 28] | 0.05 to 1 µM | < 0.05 µM | < 0.05 µM | < 0.05 µM | 0.05 to 1 µM |
| COCCOC(=O)N1CCN(S(=O)(=O)c2ccc(Oc3ccc(F)cc3)c(F)c2)[C@@H](C(=O)NO)C1 [Entry 3] | 1 to 20 µM | < 0.05 µM | < 0.05 µM | < 0.05 µM | 0.05 to 1 µM |
| CN1CCC(OC(=O)N2CCN(S(=O)(=O)c3cc(F)c(Oc4ccc(Cl)cc4)c(F)c3)[C@@H](C(=O)NO)C2)CC1 [Entry 22] | 0.05 to 1 µM | < 0.05 µM | < 0.05 µM | < 0.05 µM | 1 to 20 µM |
| CN(C)c1ccc2c(S(=O)(=O)N3CCN(S(=O)(=O)c4cc(F)c(Oc5ccc(Cl)cc5)c(F)c4)[C@@H](C(=O)NO)C3)cccc2c1 [Entry 49] | 0.05 to 1 µM | < 0.05 µM | 1 to 20 µM | < 0.05 µM | > 20 µM |
| O=C(NO)[C@H]1CN(S(=O)(=O)Cc2cc(Cl)cc(Cl)c2)CCN1S(=O)(=O)c1cc(F)c(Oc2ccc(Cl)cc2)c(F)c1 [Entry 61] | > 20 µM | 1 to 20 µM | 0.05 to 1 µM | 1 to 20 µM | > 20 µM |
| O=C(NO)[C@H]1CN(CC(=O)N2CCCC2)CCN1S(=O)(=O)c1cc(F)c(Oc2ccc(Cl)cc2)c(F)c1 [Entry 21] | 1 to 20 µM | 0.05 to 1 µM | < 0.05 µM | < 0.05 µM | > 20 µM |
| O=C(NO)[C@H]1CN(C(=O)N2CCOCC2)CCN1S(=O)(=O)c1ccc(Oc2ccc(Cl)cc2)c(F)c1 [Entry 6] | < 0.05 µM | < 0.05 µM | < 0.05 µM | < 0.05 µM | 0.05 to 1 µM |
| CC(C)(C)OC(=O)N1CCN(S(=O)(=O)c2cc(F)c(Oc3ccc(F)cc3)c(F)c2)[C@@H](C(=O)NO)C1 [Entry 9] | 1 to 20 µM | 1 to 20 µM | < 0.05 µM | < 0.05 µM | 1 to 20 µM |
| COCCOC(=O)N1CCN(S(=O)(=O)c2ccc(Oc3ccc(F)cc3)cc2)[C@@H](C(=O)NO)C1 [Entry 1] | < 0.05 µM | < 0.05 µM | < 0.05 µM | < 0.05 µM | < 0.05 µM |
| N#Cc1ccc(Oc2ccc(S(=O)(=O)N3CCN(C(=O)N4CCOCC4)C[C@@H]3C(=O)NO)cc2F)cc1 [Entry 7] | < 0.05 µM | < 0.05 µM | < 0.05 µM | < 0.05 µM | 0.05 to 1 µM |
| COCCOC(=O)N1CCN(S(=O)(=O)c2ccc(Oc3ccc(F)cc3)nc2)[C@@H](C(=O)NO)C1 [Entry 65] | < 0.05 µM | < 0.05 µM | 0.05 to 1 µM | < 0.05 µM | < 0.05 µM |
| O=C(NO)[C@H]1CN(S(=O)(=O)CCN2CCOCC2)CCN1S(=O)(=O)c1cc(F)c(Oc2ccc(Cl)cc2)c(F)c1 [Entry 57] | 1 to 20 µM | 0.05 to 1 µM | 0.05 to 1 µM | 0.05 to 1 µM | > 20 µM |
| COCCOC(=O)N1CCN(S(=O)(=O)c2ccc(Oc3ccc(C#N)cc3)c(F)c2)[C@@H](C(=O)NO)C1 [Entry 5] | 0.05 to 1 µM | < 0.05 µM | < 0.05 µM | < 0.05 µM | 0.05 to 1 µM |

Source: patent US7629341B2, “Human ADAM-10 inhibitors” (Symphony Evolution, Inc., priority 2003, dated 2009)
